Experimental findings from ChEMBL document CHEMBL4421719, “Modulation of k2p channels” (2016) are described below.

Common to all, as to type: cell-based
For assay [1], the target named is T1, Potassium channel subfamily K member 5 (Homo sapiens) (UniProt O95279).
T1 sequence (whole entry): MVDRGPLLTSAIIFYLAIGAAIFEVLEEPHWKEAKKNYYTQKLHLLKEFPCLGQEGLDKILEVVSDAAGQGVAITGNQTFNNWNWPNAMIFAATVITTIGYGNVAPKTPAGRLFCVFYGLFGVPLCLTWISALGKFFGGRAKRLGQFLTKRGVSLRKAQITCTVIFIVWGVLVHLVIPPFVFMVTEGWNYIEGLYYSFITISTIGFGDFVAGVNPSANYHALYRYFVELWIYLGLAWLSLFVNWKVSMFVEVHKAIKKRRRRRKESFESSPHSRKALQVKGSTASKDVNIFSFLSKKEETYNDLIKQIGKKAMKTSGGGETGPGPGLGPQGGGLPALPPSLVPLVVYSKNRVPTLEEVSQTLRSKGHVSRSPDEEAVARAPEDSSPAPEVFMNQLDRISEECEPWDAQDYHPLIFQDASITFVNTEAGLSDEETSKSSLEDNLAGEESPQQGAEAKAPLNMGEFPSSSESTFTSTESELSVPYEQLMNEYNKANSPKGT
Put plainly: Activation of K2P5.1 (unknown origin) expressed in Xenopus oocytes assessed as effect on channel currents at -80 mV holding potential by two-electrode voltage clamp assay relative to control.

Assay [2] has as its target T2, Potassium channel subfamily K member 2 (Homo sapiens) (UniProt O95069).
T2 sequence (whole entry): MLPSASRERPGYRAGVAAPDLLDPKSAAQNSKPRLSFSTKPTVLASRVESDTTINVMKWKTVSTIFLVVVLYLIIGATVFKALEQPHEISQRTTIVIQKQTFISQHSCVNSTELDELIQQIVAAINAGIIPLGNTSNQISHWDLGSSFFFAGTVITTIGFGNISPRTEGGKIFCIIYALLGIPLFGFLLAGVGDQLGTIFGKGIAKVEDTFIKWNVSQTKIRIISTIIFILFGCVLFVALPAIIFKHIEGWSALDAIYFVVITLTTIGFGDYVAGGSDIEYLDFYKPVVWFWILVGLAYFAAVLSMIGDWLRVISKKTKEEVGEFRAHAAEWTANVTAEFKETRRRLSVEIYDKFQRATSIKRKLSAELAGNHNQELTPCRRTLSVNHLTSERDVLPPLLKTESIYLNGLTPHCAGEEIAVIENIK
Put plainly: Activation of K2P2.1 (unknown origin) expressed in Xenopus oocytes assessed as effect on channel currents at -80 mV holding at 100 uM by two-electrode voltage clamp assay relative to control.

Assay [3] relates to Potassium channel subfamily K member 2 (Homo sapiens), O95069 [UNDEFINED MUTATION]. Put plainly: Activation of K2P2.1 W275S mutant (unknown origin) expressed in Xenopus oocytes assessed as effect on channel currents at 50 uM at -80 mV holding potential by two-electrode voltage clamp assay. (Two-electrode voltage clamp is typically applied to oocytes expressing channels or transporters.)

Assay [4] addresses T2, Potassium channel subfamily K member 2 (Homo sapiens). Put plainly: Activation of K2P2.1 (unknown origin) expressed in HEK293T cell membranes in outside-out patch configuration assessed as effect on channel currents at 20 uM by two-electrode voltage clamp assay relative to control.

Active and inactive are the calls of the source. The calls are words filed in the database; no cut-off is given here.

For the compound `CC1(C)c2cc(Cl)ccc2N(CCc2nnn[nH]2)c2ccc(Cl)cc21`, the Emax in assay [1] was determined as 1.7; in assay [2], 11.1%. The outcome in assay [3] was inactive. Also, in assay [4], the outcome was Active.
